# Source: patent publication US11662342B2, “Barrier function measurements” (MIMETAS B.V., priority 2015, dated 2023)
# Key:
# [1] = system: Caco-2 tubules; test: Loss of barrier function of gut tubule (Caco-2) exposed to aspirin (TRITC-dextran 150 kDa); format: cell-based, human; settings: for loss of barrier integrity: imaged every hour for 24 hours
# Description: FIG. 11 depicts the loss of barrier function of a gut tubule exposed to aspirin. […] However, the lack of data on concentrations with a maximum response hinders accurate EC50 estimation.
# [2] = system: MDCK tubules; format: cell-based, canine
# Description: The 3 lane OrganoPlate® offers the unique possibility to add a compound from only the apical or the basolateral side of the tubular structure. […] Actively transported compounds can have directionality in the trans-cellular transport, as is for example the situation in the renal proximal tubules, where moving compounds specifically from the apical side of the tube to the basolateral side, or the other way around, is part of the renal filtering function. This implies toxic compounds that are actively transported by the proximal tubule cells can have a different effect depending on the location of exposure. The anti-cancer drug cisplatin is taken up by cells by the OCT-2 transporter that is expressed on the basal side of the epithelial monolayer. MDCK cells were seeded in the top channel of a 200 μm 3 lane OrganoPlate® against a collagen I ECM at 10E6 cells/mL. Three days after seeding MDCK tubules were exposed to increasing concentrations of cisplatin from either the apical or basal side by replacing the medium either in the top medium channel, or in the bottom medium channel, with medium with cisplatin. At the start of the exposure the medium in the top channel was also supplied with a fluorescent leakage marker, FITC-dextran 150 kDa.
# [3] = system: LLC-PK1 tubules; test: Barrier integrity assay, LLC-PK1 tubules with staurosporin exposure (FITC-dextran 150 kDa leakage); format: cell-based, pig; settings: 0, 1, 5 or 10 μM in top perfusion channel, imaged every 15 min for 16 hours
# Description: The integrity of a cellular barrier, cultivated for example as described in FIGS. 1 and 2, can be probed by replacing the medium in the perfusion channel by medium containing 500 μg/mL FITC-dextran 150 kDa (Sigma, 46946). A) If the cellular barrier is leak-tight the fluorescent signal will be contained in the perfusion channel, whereas in the microfluidic chip with no cells, just ECM in the gel channel, the fluorescent signal will enter the ECM and will saturate within minutes. The fluorescent signal in the perfusion and gel channel can be monitored real time using time-lapse fluorescent microscopy, as for example with the ImageXpress Micro (Molecular Devices). B) Fluorescent signal intensity of the FITC-dextran 150 kDa was quantified in the top perfusion channel and in the gel channel using FIJI analysis software (Schindelin, J.; Arganda-Carreras, I. & Frise, E. et al. (2012), “Fiji: an open-source platform for biological-image analysis”, Nature methods 9(7): 676-682, PMID 22743772). C) The intensity of the gel channel was divided by the intensity of the top perfusion channel and the ratio was plotted against the time after start of fluorescent reporter addition. Without a cellular barrier the ECM is saturated within minutes after dye addition whereas a ratio close to zero is maintained as long as the cellular barrier is intact. […]
# [4] = system: MDCK tubules; test: Barrier integrity assay, MDCK tubules with staurosporin exposure (FITC-dextran 150 kDa leakage); format: cell-based, canine; settings: 0, 1, 4, 7 or 10 μM in top perfusion channel, imaged every hour for 15 hours
# Description: MDCK (canine) cell line was seeded at 10*10^6 cells/mL in the top perfusion channel of a 400 μm 3-lane OrganoPlate® against a collagen I ECM (Cultrex, Amsbio, 3447-020-01, 4 mg/mL). 60 μL of medium was added to the medium inlet and outlet of the top perfusion channel. Plate was incubated on its side for 3 hours to allow cells to settle on top of the ECM. Three hours after seeding 60 μL medium was added to the medium inlet and outlet of the bottom perfusion channel and plate was placed on a rocker platform for continuous medium perfusion (angle 7°, tilt every 8 min). […] Volumes were 40 μL inlet/30 μL outlet in top perfusion channel, 0 μL inlet/0 μL outlet in the middle ECM channel, 20 μL inlet/20 μL outlet standard culture medium in the bottom perfusion channel. […]
# Fluorescent signal intensity of the FITC-dextran 150 kDa was quantified in the top perfusion channel and in the gel channel of FIG. 4 using FIJI analysis software (Schindelin, J.; Arganda-Carreras, I. & Frise, E. et al. (2012), “Fiji: an open-source platform for biological-image analysis”, Nature methods 9(7): 676-682, PMID 22743772). […] The time-to-leakage value (e.g. 2 hours after compound addition) will have to be determined based on validation experiments to ensure maximal in vivo relevance. […]
# [5] = system: Caco-2 tubules; test: Time-to-leak barrier integrity assay, human gut tubule (Caco-2) exposed to staurosporin (TRITC-dextran 150 kDa); settings: Caco-2 tubes; imaged every hour for 13 hours; normalized TRITC-dextran fluorescence
# Description: The Caco-2 cell line (Sigma, human colon carcinoma cells) was seeded in a 400 μm 3 lane OrganoPlate® at 10E6 cells/mL, placed on side for cell-ECM attachment for 2 hours, and then placed on a modified rocker platform for continuous medium perfusion. Three days after seeding leak-tightness of the Caco-2 tubules was tested by replacing the medium in the top perfusion channel with medium containing 0.25 mg/mL TRITC dextran 150 kDa. […] Medium in the top medium channel was replaced with medium with TRITC-dextran and increasing concentrations of aspirin. Plate was placed in the ImageXpress Micro XLS under temperature and CO2 controlled conditions and imaged for fluorescent (TRITC) signal every hour for 13 hours. A dose response curve can be extracted at every time point from the time-lapse of the exposed Caco-2 tubes. GraphPad Prism 6 (GraphPad Software Inc., La Jolla, Calif.) was used to fit the dose response curve based on nonlinear regression of the logarithm of the compound concentration versus the normalized fluorescence assuming a top and bottom plateau at 0 and 100% fluorescence.
# [6] = system: human proximal tubule cells (RPTEC); test: Drug induced loss of barrier integrity of human kidney proximal tubule (RPTEC), Kaplan-Meier plot; format: cell-based; settings: RPTEC tubules; increasing concentrations; imaged every hour for 60 hours; versus medium, vehicle control 1 and 2
# Description: After eight days in culture >95% of the seeded tubules were shown leak-tight by addition of FITC-dextran 150 kDa to the medium in the luminal compartment. Medium in the tubes was replaced with medium containing increasing concentrations of the renal toxicant amphotecerin B and the fluorescent FITC-dextran. […] IC indicates an inhibitor cocktail of 3 efflux transporter inhibitors.
compound,measurement,setting,value
CC(=O)Oc1ccccc1C(=O)O [aspirin],loss of barrier integrity,[1]; 3.7 mM,loss of barrier integrity
same,exposure time at which a 50% effect was observed,[1]; 12 mM,20 h
same,loss of barrier integrity,[1]; 12 mM (12.12 mM),clear loss of barrier integrity
same,exposure time at which a 50% effect was observed,[1]; 40 mM,10 h
same,loss of barrier integrity,[1]; 40 mM,clear loss of barrier integrity
N.N.[Cl][Pt][Cl] [cisplatin],"time-to-leak, tubes exposed from the basal side versus apical exposed tubes",[2],significantly earlier
CN[C@@H]1C[C@H]2O[C@@](C)([C@@H]1OC)n1c3ccccc3c3c4c(c5c6ccccc6n2c5c31)C(=O)NC4 [staurosporin],integrity of the LLC-PK1 barrier with increasing concentrations,[3],breaks at an earlier time point
same,integrity of the MDCK barrier with increasing concentrations,[4],breaks at an earlier time point
same,dose response curve of barrier leakage with increasing exposure times,[5],shift towards lower compound concentrations
amphotecerin B,"survival of tube integrity, exposed versus unexposed tubes",[6],significant difference
